This assay deals with A549 cells. The experiment in a line: Cell growth inhibition, A549. The assay is classed as cell-based, human. The text has this: At this respect, concentrations which inhibit growth of tumour cells (IC50) are lower for the enantiomer S ([−]) in all studied tumour lines (Table 5). […] In all of the cases, the molecules employed were in the form of sodium salt.
Where [1] appears, read: Homo sapiens, A549, A549, sodium salt form.

Consider `CCCCC/C=C\C/C=C\C/C=C\CCCC(O)C(=O)O` (racemic) [Racemic 2OH18:3g, 2-hydroxy-γ-linoleic acid], for which the IC50 (A549, sodium salt form) worked out at 206 ± 21.7 µM.
The same measure, in the same setting: as for `CCCCC/C=C\C/C=C\C/C=C\CCCC(O)C(=O)O` (stereo not drawn) [[−]2OH18:3g] [2-hydroxy-γ-linoleic acid], the figure is 155 ± 7.5 µM.
`CCCCC/C=C\C/C=C\CCCCCCC(O)C(=O)O` (stereo not drawn) [[+]2OH18:2] [2-hydroxylinoleic acid]: under “A549, sodium salt form”, the half-maximal inhibitory concentration (IC50) came to 186 ± 21.9 µM.
Take `CCCCC/C=C\C/C=C\CCCCCCC(O)C(=O)O` (stereo not drawn) [[−]2OH18:2] [2-hydroxylinoleic acid]: the 50% inhibitory concentration (IC50) (A549, sodium salt form) was 69.9 ± 11.2 µM.
On the same count and under the same terms, as for `CC/C=C\C/C=C\C/C=C\CCCCCCC(O)C(=O)O` (stereo not drawn) [[+]2OH18:3a] [2-hydroxy-α-linoleic acid], the figure is 351 ± 22.7 µM.
As to `CCCCCC/C=C\CCCCCCC(O)C(=O)O` (stereo not drawn) [[−]2OH16:1] [2-hydroxypalmitoleic acid], the half-maximal inhibitory concentration (IC50) (A549, sodium salt form) came to 110 ± 14 µM.
Take `CC/C=C\C/C=C\C/C=C\CCCCCCC(O)C(=O)O` (stereo not drawn) [[−]2OH18:3a] [2-hydroxy-α-linoleic acid]: where the note is “A549, sodium salt form”, the half-maximal inhibitory concentration (IC50) came out at 146 ± 10.9 µM.
For the molecule `CC/C=C\C/C=C\C/C=C\CCCCCCC(O)C(=O)O` (racemic) [Racemic 2OH18:3a, 2-hydroxy-α-linoleic acid], under “A549, sodium salt form”, the 50% inhibitory concentration (IC50) amounted to 219 ± 15.4 µM.
Still for that read-out and setting: the same measure for `CCCCC/C=C\C/C=C\C/C=C\CCCC(O)C(=O)O` (stereo not drawn) [[+]2OH18:3g] [2-hydroxy-γ-linoleic acid]: 342 ± 31.5 µM; for `CCCCCC/C=C\CCCCCCC(O)C(=O)O` (stereo not drawn) [[+]2OH16:1] [2-hydroxypalmitoleic acid]: 299 ± 34.2 µM.
Consider `CCCCC/C=C\C/C=C\CCCCCCC(O)C(=O)O` (racemic) [Racemic 2OH18:2, 2-hydroxylinoleic acid], for which, under setting [1], the IC50 was 105 ± 4.1 µM.
On the same count and under the same terms, as for `CCCCCC/C=C\CCCCCCC(O)C(=O)O` (racemic) [Racemic 2OH16:1, 2-hydroxypalmitoleic acid], the figure is 193 ± 9.3 µM.

One may read the IC50 as the concentration that inhibits the measured activity by half.
